Literature values, collected in patent publication US20090131263A1, “Normalization methods for G-protein coupled receptor membrane array” (priority 2007, published 2009).

How the values were obtained:
[1] = target: Gi2 (Homo sapiens, UniProt P04899); conditions: unactivated form of G protein Gi2, reconstituted vesicle systems
[2] = target: Gs (Homo sapiens, UniProt P63092); conditions: unactivated form of G protein Gs, reconstituted vesicle systems
[3] = target: Gi1 (Homo sapiens, UniProt P63096); conditions: unactivated form of G protein Gi1, reconstituted vesicle systems
Gi1, sequence (P63096 whole entry): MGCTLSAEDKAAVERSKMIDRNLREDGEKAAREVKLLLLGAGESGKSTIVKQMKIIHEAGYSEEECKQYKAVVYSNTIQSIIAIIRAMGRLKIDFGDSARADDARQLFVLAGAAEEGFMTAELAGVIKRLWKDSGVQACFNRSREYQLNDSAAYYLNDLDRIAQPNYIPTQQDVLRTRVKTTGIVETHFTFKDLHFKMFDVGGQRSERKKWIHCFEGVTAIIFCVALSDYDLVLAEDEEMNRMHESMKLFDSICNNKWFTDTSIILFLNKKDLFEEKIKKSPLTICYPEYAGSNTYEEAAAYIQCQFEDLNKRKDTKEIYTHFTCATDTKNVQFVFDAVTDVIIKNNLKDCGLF

[4] = target: Go (Homo sapiens, UniProt P09471); conditions: unactivated form of G protein Go, reconstituted vesicle systems
Go, sequence (P09471 whole entry): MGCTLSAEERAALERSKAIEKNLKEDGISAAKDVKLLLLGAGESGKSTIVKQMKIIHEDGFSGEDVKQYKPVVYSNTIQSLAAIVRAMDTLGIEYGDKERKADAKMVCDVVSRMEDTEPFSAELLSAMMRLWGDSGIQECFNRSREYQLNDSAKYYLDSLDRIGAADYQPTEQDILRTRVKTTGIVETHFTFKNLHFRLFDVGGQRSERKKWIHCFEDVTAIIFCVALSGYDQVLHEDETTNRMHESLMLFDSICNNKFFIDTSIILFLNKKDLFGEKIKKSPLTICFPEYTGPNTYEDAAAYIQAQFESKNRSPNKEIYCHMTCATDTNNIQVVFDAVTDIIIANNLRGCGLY

Gi2, sequence (P04899 whole entry): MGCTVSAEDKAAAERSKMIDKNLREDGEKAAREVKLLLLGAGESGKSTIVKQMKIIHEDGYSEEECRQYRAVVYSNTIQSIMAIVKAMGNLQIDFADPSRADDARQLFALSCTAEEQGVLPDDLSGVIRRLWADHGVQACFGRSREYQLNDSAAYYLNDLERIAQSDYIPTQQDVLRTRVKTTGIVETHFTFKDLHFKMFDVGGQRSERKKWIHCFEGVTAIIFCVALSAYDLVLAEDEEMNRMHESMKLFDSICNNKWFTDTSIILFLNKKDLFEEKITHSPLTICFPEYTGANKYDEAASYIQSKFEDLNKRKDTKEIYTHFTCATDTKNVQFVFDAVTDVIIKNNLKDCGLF
Gs, sequence (P63092 whole entry): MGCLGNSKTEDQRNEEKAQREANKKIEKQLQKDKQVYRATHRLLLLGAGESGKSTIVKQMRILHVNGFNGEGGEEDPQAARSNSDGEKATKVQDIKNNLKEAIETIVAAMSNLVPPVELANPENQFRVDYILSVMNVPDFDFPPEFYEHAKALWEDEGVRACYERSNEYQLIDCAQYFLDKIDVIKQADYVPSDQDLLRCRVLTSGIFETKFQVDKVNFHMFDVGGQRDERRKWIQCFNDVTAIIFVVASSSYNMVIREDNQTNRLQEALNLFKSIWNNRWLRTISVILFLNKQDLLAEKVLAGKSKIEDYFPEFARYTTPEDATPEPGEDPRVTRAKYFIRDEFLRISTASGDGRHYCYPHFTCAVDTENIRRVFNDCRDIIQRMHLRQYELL

In the case of BODIPY-FL-GTPγS, the Kd [1] is given as 300 nM, the Kd [2] is given as 70 nM and the Kd [3] is given as 150 nM. The Kd [4] was 6 nM.
